According to patent publication US20060036073A1, “Neurotrophic and neuroprotective peptides” (priority 2002, published 2006):
Where a SMILES comes first, the peptide text is derived from it. Where no end group is shown, it is not given here.

Experiments:
[1] = tested on: cortical neurons that are obtained from chicken embryos; assay: Summary of the screening over all neuroprotection assays; assay type: cell-based; settings: for Active in: (number of assays): Table 2 summary
Experimental: Since the targets of the therapy with the peptides presented according to the invention are various neurodegenerative diseases, different model systems for detecting the biological activity of the peptides according to the invention in the case of neurodegenerative diseases were used. Later, the individually used model systems and the results thus achieved are described. […] That is to say, the implementation of the tests was carried out on different days with different cell preparations and by different individuals. For some peptides, two numbers were issued (#1=#23 or #6=#35 or #7=#43), but the results with these peptides were only shown once. […] With some other substances, there were problems in the production, and thus only small amounts were available, and it was not possible to test the substances in all the assays (#12, 14, 17, 35 and #48). […] As could be seen from the figures, the standard deviations, i.e., the fluctuations between the independent experiments, are to some extent quite large. These fluctuations can be attributed to stability problems. These peptides are the peptides that are preferred within the scope of the invention.

[2] = tested on: amyloid-beta peptides (β-amyloid 25-35) / nerve cell cultures; assay: Amyloid-beta aggregation assay (peptide added to fresh amyloid-beta solution, effect on nerve cell cultures); assay type: cell-based, chicken; settings: for AβP reagg. (diff vs C): difference vs control, only one round of testing
Experimental: Beta-Amyloid peptides represent, in aggregated form, a potent neurotoxin whose addition to the nerve cell cultures results in a quick and progressive cell death. Since beta-amyloid peptides constitute an essential role in the pathogenesis of Alzheimer's disease, this model can be considered especially relevant.
This biological test is a process for testing anti-aggregatory substance potential that is specially developed for this project. The newly synthesized peptides are added directly to a fresh solution of amyloid-beta peptides to prevent the formation of neurotoxic aggregates. The effect that aggregates that still develop have on growth and survival of nerve cell cultures is the measurement parameter.

[3] = tested on: cortical neurons that are obtained from chicken embryos; assay: Serum-withdrawal assay (2% assay), neuron viability by MTT; assay type: cell-based
Experimental: This simulates the disruptions in the stimulation of neurons with nerve growth factors that are assumed to be one of the possible causes of neurodegenerative diseases. The effectiveness of the new peptides in preventing cell death was measured.

[4] = tested on: cortical neurons that are obtained from chicken embryos; assay: Chronic disruption of the calcium metabolism by ionomycin, neuron viability by MTT; assay type: cell-based; settings: ionomycin 10 μM, 24 hours
Experimental: It is common to these biological test systems that cortical neurons that are obtained from chicken embryos are cultivated in culture plates for eight days and then are exposed to a specific noxa (Pettmann et al., Nature 281 (5730): 378-80 [1979]).
To this end, a one-day-old, fertilized hen's egg is incubated for eight days at +12 +/− 0.1° C. and 80 +/− 5% atmospheric humidity. On the embryonal day 0, the eggs are transferred into an incubator and incubated up to the embryonal day 8 at 38 +/− 0.5° C. and 55 +/− 5%. After the brains are removed, the cortices are isolated, homogenized, and neurons are taken into primary culture (culture conditions: Dulbecco's Modified Eagle's Medium, 20% v/v fetal calf serum, 0.01% gentamicin, 1 g/l of glucose, 2 mmol of L-glutamine, +37° C., 5% CO2 and 95% atmospheric humidity). […] After the end of the specified stress period, the proportion of the still living neurons is determined with a metabolic colorimetric assay (the reaction of the yellow chromophore MTT to a blue formazan product is carried out only by living cells).
It is expected that in the case of various neurodegenerative diseases, chronic calcium overloading occurs because of metabolic malfunctions, which ultimately produces cell death via the activation of various enzyme systems. […]

| Compound | effectiveness across the screening assays (in words) [1] | Active in: (number of assays) [1] | further results |
| --- | --- | --- | --- |
| DVFMK [BH#32] | not effective in any assay |  |  |
| MDVFMKG [BH#19, MDVFMKG] |  |  | AβP reagg. (diff vs C) [2]: 20% |
| DVFMKGL [BH#30, DVFMKGL] | effective in only one screening assay |  |  |
| GLSMAKE [BH#37, GLSMAKE] |  |  | effects over the effects of the control (=100%) [3]: 150% |
| DVFMKGLSMAK [BH#26] |  | 2 of 7 | increase of neuronal vitality by ([2]; β-amyloid 25-35, peptide added to fresh amyloid solution): 74% |
| CSCC[C@H](NC(=O)[C@H](Cc1ccccc1)NC(=O)[C@@H](NC(=O)[C@@H](N)CC(=O)O)C(C)C)C(=O)O [BH#33, DVFM] (H-DVFM-OH; N-terminus and C-terminus assumed) | effective in only one screening assay |  |  |
| DVFMKGLSM [BH#28, DVFMKGLSM] |  | 4 of 7 |  |
| MDVFMKGLSM [BH#16, MDVFMKGLSM] |  | 4 of 7 | effects over the effects of the control (=100%) [3]: 150% |
| LSMAKE [BH#45, LSMAKE] | effective in only one screening assay |  |  |
| CC(C)[C@H](NC(=O)[C@@H](N)CC(=O)O)C(=O)N[C@@H](Cc1ccccc1)C(=O)O [BH#34, DVF] (H-Asp-Val-Phe-OH) |  |  | increase in cell vitality to [4]: about 150%; AβP reagg. (diff vs C) [2]: 19% |
| MDVFMK [BH#20, MDVFMK] | effective in only one screening assay |  |  |
| LSMAK [BH#46, LSMAK] |  | 2 of 7 | action in models of pathological processes of neurodegenerative diseases (in words) [1]: excellent action |
| Ac-SMAKEGV [BH#8, SMAKEGV] |  | 5 of 7 | increase in cell vitality to [4]: about 150%; action in models of pathological processes of neurodegenerative diseases (in words) [1]: excellent action |
| GLSMA [BH#39] | effective in only one screening assay |  |  |
| GLS [BH#41] | not effective in any assay |  |  |
| MDVFMKGL [BH#18] | not effective in any assay |  |  |
| DVFMKGLSMA [BH#27, DVFMKGLSMA] |  | 4 of 7 |  |
| LSMAKEGV [BH#7, LSMAKEGV] |  |  | effects over the effects of the control (=100%) [3]: approximately 450% |
